According to ChEMBL document CHEMBL4364247, “Development of potential preclinical candidates with promising in vitro ADME profile for the inhibition of type 1 and type 2 17β-Hydroxysteroid dehydrogenases: Design, synthesis, and biological evaluation” (Eur J Med Chem, 2019):
Values after ≈ are worked out from the molar mass of the structure shown.

Columns and labels:
[1] = biological target: T1, 17-beta-hydroxysteroid dehydrogenase type 2 (Homo sapiens, UniProt P37059); assay: Inhibition of human placental microsomal fraction 17beta-HSD2 using [3H]-E2 as substrate in presence of NAD+ by radio-HPLC analysis; assay type: subcellular, Placenta
T1 sequence (P37059 whole entry): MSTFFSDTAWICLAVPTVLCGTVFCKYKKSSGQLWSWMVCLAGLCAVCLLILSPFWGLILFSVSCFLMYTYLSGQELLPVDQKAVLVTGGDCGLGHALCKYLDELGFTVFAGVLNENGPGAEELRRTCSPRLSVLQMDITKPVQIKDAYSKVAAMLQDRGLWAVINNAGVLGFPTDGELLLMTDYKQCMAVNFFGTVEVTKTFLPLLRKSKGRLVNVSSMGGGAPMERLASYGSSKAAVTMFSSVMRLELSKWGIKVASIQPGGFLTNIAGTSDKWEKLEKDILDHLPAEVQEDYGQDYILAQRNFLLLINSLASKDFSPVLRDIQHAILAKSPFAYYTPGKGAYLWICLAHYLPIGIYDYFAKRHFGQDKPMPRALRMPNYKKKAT

[2] = Aqueous solubility of the compound in phosphate-buffered saline at pH 7.2 after 1 to 24 hrs; assay type: physicochemical
[3] = Half life in human liver S9 fraction at 1 uM in presence of NADPH; assay type: ADME, subcellular
[4] = biological target: T2, Estradiol 17-beta-dehydrogenase 2 (Mus musculus) (UniProt P51658); assay: Inhibition of mouse liver homogenate 17beta-HSD2 at 1uM using [3H]-E2 as substrate in presence of NAD+ by radio-HPLC analysis relative to control; assay type: tissue-based
T2 sequence (whole entry): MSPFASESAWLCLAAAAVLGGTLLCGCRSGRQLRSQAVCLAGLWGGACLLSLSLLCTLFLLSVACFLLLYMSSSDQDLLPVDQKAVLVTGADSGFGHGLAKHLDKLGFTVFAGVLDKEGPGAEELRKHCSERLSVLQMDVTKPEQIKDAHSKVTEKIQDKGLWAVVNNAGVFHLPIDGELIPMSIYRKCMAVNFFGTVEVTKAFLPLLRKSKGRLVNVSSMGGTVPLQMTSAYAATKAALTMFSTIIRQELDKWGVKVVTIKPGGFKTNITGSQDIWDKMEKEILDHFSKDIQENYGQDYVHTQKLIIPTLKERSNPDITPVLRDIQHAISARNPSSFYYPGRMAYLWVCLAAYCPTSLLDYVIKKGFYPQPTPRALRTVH

[5] = biological target: T3, 17-beta-hydroxysteroid dehydrogenase type 1 (Homo sapiens, UniProt P14061); assay: Inhibition of human placental cytosolic fraction 17beta-HSD1 using [3H]-E1 as substrate in presence of […] by radio-HPLC analysis
T3 sequence (P14061 whole entry): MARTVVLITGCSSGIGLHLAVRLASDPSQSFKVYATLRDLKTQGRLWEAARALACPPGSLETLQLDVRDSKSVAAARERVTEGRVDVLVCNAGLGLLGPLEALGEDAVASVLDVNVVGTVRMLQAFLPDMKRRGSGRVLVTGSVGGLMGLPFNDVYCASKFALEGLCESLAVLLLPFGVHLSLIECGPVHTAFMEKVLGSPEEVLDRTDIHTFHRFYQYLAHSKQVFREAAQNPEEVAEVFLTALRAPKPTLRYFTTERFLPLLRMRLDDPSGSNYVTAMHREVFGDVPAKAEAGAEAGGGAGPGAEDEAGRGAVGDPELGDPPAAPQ

[6] = biological target: T4, 17-beta-hydroxysteroid dehydrogenase type 2 (Homo sapiens) (UniProt P37059); assay: Inhibition of human placental microsomal fraction 17beta-HSD2 at 10 nM using [3H]-E2 as substrate in presence of NAD+ by radio-HPLC analysis relative to control; assay type: subcellular; settings: Placenta
T4 sequence (whole entry): T1 sequence (P37059 whole entry)

[7] = biological target: T5, 17-beta-hydroxysteroid dehydrogenase type 1 (Homo sapiens) (UniProt P14061); settings: 10 nM
T5 sequence (whole entry): T3 sequence (P14061 whole entry)
Description: Inhibition of human placental cytosolic fraction 17beta-HSD1 at 10 nM using [3H]-E1 as substrate in presence of NAD+ by radio-HPLC analysis relative to control

[8] = Selectivity index, ratio of cytotoxicity against HEK293 cells to IC50 for human placental cytosolic fraction 17beta-HSD1
HEK293 = assay: Cytotoxicity against human HEK293 cells assessed as cell viability at 6.3 uM after 66 hrs by MTT assay; assay type: cell-based; settings: hek293, 66 h
[9] = Selectivity index, ratio of IC50 for mouse liver homogenate 17beta-HSD2 to IC50 for human placental cytosolic fraction 17beta-HSD1
[10] = biological target: T6, Estradiol 17-beta-dehydrogenase 2 (Mus musculus, UniProt P51658); assay: Inhibition of mouse liver homogenate 17beta-HSD2 using [3H]-E2 as substrate in presence of NAD+ by radio-HPLC analysis; assay type: tissue-based
T6 sequence (P51658 whole entry): T2 sequence (whole entry)

[11] = biological target: T7, Steryl-sulfatase (Homo sapiens) (UniProt P08842); assay: Inhibition of human steroid sulfatase expressed in T47D cells using [3H]-E1S as substrate by radio-HPLC analysis relative to control; assay type: cell-based; settings: concentration not given here
T7 sequence (whole entry): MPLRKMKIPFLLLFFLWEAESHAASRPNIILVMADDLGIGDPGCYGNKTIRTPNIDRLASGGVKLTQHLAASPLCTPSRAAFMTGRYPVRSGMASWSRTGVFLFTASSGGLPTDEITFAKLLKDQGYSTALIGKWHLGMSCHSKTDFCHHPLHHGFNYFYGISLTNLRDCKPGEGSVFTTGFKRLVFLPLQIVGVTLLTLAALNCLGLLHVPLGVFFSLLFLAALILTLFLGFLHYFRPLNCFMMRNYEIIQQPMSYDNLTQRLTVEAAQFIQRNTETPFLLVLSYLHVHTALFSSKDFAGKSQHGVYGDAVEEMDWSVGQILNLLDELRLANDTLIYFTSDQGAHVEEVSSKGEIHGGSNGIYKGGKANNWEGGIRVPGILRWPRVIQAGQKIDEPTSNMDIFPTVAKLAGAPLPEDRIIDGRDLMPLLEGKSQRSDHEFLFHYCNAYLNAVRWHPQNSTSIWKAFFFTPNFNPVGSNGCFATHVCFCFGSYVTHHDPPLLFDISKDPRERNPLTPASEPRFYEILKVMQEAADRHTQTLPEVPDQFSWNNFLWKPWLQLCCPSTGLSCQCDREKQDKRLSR

Row | IC50 [1] [nM] | solubility [2] [µM] | half-life at 1 µM [3] [min] | IC50 [5] [nM] | Compound | also measured
1 | 7.3 | 15 to 25 (≈ 5.41 to 9.01 µg/mL) | < 5 |  | Cc1cc(-c2ccc(C(=O)c3c(F)ccc(O)c3F)s2)cc(C)c1O | 
2 |  | > 200 |  |  | O=C(c1ccc(-c2cncc(F)c2)s1)c1cc(F)c(F)c(O)c1F | inhibition [4]: 24%
3 | 18 |  |  | 3 | O=C(c1ccc(-c2cc(Cl)c(O)c(Cl)c2)s1)c1c(Cl)ccc(O)c1F | 
4 | 75 |  |  | 80 | CS(=O)(=O)n1cc(-c2ccc(C(=O)c3c(F)ccc(O)c3F)s2)cn1 | 
5 |  | 25 to 50 (≈ 14.3 to 28.7 µg/mL) |  |  | O=C(c1ccc(-c2cccc(NS(=O)(=O)c3ccccc3OC(F)(F)F)c2)s1)c1cc(F)c(F)c(O)c1F | 
6 |  |  |  |  | NS(=O)(=O)c1cccc(-c2ccc(C(=O)c3c(F)ccc(O)c3F)s2)c1 | inhibition [6]: 26%; inhibition [7]: 34%
7 | 18 | > 200 |  | 8 | CS(=O)(=O)c1cccc(-c2ccc(C(=O)c3cc(F)c(F)c(O)c3F)s2)c1 | inhibition [4]: 60%
8 |  |  |  |  | NS(=O)(=O)c1ccc(-c2ccc(C(=O)c3c(F)ccc(O)c3F)s2)cc1 | inhibition [6]: 54%; inhibition [7]: 18%
9 | 76 | 100 to 200 (≈ 35.6 to 71.3 µg/mL) | 22 | 6 | Cc1cc(-c2ccc(C(=O)c3cc(F)cc(O)c3C)s2)cc(C)c1O | Selectivity Index [8]: 1050; Activity (HEK293): Non-Toxic
10 |  |  | 25 |  | Cc1cc(-c2ccc(C(=O)c3cccc(O)c3C)s2)cc(C)c1O | 
11 | 15 |  | < 5 | 0.5 | COc1c(Cl)cc(-c2ccc(C(=O)c3c(Cl)ccc(O)c3F)s2)cc1Cl | 
12 |  | < 5 | < 5 |  | COc1c(Cl)cc(-c2ccc(C(=O)c3c(F)ccc(O)c3F)s2)cc1Cl | 
13 | 6 | > 200 | 55 | 35 | NS(=O)(=O)Oc1ccc(-c2ccc(C(=O)c3cc(F)c(F)c(O)c3F)s2)cc1 | Ratio IC50 [9]: < 10; IC50 [10]: 80 nM; inhibition [11]: 60%
14 |  | 15 to 25 (≈ 5.62 to 9.36 µg/mL) | 28 |  | Cc1cc(-c2ccc(C(=O)c3cc(F)c(F)c(O)c3C)s2)cc(C)c1O | 
15 | 9.5 |  |  | 15 | COc1c(Cl)cc(-c2ccc(C(=O)c3c(F)ccc(O)c3Cl)s2)cc1Cl | 
